Results on one molecule are retold here after patent US7910588B2, “5-HT7 receptor antagonists” (Eli Lilly and Company, priority 2007, dated 2011).

Test [1] addresses T1, 5-HT1D (Homo sapiens, UniProt P28221).
T1 construct: expressed in transfected cells
Kind of test: Radioligand binding assay, 5-HT1D. On the procedure:
(§1) [^3H] […] The reactions are incubated at room temperature for 3 hr. and then counted in a Trilux Microbeta™ scintillation counter to detect receptor-bound radioligand. Binding data are analyzed by computer-assisted 4 parameter fit analysis (ID Business Solutions Ltd, Guildford, Surrey, UK). […]
(§2) Affinity for other serotonin receptor subtypes as well as for alpha 1 & 2 adrenergic receptors can readily be determined by modification of the above described radioligand receptor binding assay using membranes derived from cells stably expressing the desired receptor subtype including the 5-HT1A, 5-HT1B, and 5-HT1D subtypes, as well as the 5-HT2A, 5-HT2B, 5-HT2C, 5-HT4, 5-HT7, and 5-HT6 receptor subtypes. […]

Test [2] deals with T2, 5-HT2A (Homo sapiens, UniProt P28223).
T2 construct: expressed in transfected cells
Description: Radioligand binding assay, 5-HT2A. On the procedure: as §1, §2

Test [3] addresses T3, 5-HT6 (Homo sapiens, UniProt P50406).
T3 construct: expressed in transfected cells
Description: Radioligand binding assay, 5-HT6. On the procedure: as §1, §2

In test [4] the target is T4, 5-HT7 receptor (Homo sapiens, UniProt P34969).
T4 construct: expressed in transfected cells
Kind of test: Functional antagonist assay: measurement of cAMP formation. The class given is cell-based. On the procedure: For cAMP functional assays, the 5-HT7-expressing cells from above are grown in 150 cm^2 flasks and processed essentially as follows. The media is aspirated from the flasks and cells are washed with 1 mL PBS. The cells are released from the flask surface using enzyme free cell dissociation solution (Specialty media (www.chemicon.com) CAT#S-004-B) and resuspended in complete media. A sample of the cells is counted and the remainder is centrifuged as above for 3 min. The resulting cell pellet is resuspended in PBS at a concentration of 1×10^6 cells per mL and used directly in the cAMP assay as described.
The 5-HT7 receptor is functionally coupled to a G-protein as measured by the ability of serotonin and serotonergic drugs to stimulate cAMP production in CHO cells transfected with the 5-HT7 receptor. (Ruat, et al., Proceedings of the National Academy of Sciences (USA), 90:8547-8551, 1993.) Accordingly, functional receptor activity can be measured by measuring adenylate cyclase activity using a commercially available cell-based, homogeneous, time resolved fluorescence assay kit, as for example the kit produced by Cisbio-US, Inc. (Bedford, Mass.). Essentially, and using the protocol and reagents provided by the manufacturer, approximately 20,000 human 5-HT7 receptor-expressing AV-12 cells (as described above) are used with test compound dose concentrations in the range described for the binding assay. […] A cAMP standard curve is also run in every experiment. After the assay plates are read in an Envision™ instrument (Perkin-Elmer, Wellesley Mass.), the data are normalized to the standard curve and converted to percent inhibition for data analysis as described above for the receptor binding assay results. The Kb (nM) is calculated as a measure of the antagonist potency of the compound. Preferred compounds are those having percent inhibition >75%. Still other preferred compounds are those having Kb<50 nM.

T4 sequence (P34969 whole entry): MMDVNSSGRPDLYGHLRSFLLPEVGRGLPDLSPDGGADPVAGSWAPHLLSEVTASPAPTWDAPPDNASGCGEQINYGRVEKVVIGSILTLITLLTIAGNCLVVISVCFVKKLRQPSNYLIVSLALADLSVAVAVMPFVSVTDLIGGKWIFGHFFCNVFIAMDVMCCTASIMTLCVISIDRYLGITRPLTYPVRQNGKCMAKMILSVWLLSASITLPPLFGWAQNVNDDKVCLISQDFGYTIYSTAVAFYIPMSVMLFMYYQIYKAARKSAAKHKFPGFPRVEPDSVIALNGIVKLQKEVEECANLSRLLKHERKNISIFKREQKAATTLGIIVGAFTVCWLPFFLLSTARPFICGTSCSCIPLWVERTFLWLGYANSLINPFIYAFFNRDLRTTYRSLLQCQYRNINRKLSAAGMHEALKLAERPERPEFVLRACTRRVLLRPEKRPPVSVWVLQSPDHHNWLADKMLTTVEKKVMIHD
T3 sequence (P50406 whole entry, species assumed): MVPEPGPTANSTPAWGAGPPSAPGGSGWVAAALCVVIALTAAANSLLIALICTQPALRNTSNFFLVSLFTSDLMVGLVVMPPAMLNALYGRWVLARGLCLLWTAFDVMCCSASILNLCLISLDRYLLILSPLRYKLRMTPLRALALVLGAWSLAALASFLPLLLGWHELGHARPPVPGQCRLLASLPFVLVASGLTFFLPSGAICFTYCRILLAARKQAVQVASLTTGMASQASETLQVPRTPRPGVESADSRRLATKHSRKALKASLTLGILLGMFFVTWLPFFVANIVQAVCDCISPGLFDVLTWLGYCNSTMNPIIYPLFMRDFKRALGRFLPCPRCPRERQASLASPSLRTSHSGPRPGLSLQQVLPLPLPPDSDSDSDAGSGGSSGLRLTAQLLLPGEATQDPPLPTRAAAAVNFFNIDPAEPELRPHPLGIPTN
T2 sequence (P28223 whole entry, species assumed): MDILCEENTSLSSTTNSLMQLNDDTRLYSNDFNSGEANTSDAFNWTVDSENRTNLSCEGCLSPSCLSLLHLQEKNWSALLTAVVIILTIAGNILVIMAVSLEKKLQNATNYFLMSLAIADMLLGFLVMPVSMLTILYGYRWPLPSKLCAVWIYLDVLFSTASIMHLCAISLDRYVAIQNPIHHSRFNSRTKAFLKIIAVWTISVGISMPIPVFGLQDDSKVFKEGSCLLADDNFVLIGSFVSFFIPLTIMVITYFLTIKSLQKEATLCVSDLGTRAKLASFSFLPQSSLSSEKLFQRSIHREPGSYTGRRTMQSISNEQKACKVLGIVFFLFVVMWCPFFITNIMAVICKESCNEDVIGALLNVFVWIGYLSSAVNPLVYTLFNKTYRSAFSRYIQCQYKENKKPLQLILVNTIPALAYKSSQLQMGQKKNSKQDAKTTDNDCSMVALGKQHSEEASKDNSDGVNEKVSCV
T1 sequence (P28221 whole entry, species assumed): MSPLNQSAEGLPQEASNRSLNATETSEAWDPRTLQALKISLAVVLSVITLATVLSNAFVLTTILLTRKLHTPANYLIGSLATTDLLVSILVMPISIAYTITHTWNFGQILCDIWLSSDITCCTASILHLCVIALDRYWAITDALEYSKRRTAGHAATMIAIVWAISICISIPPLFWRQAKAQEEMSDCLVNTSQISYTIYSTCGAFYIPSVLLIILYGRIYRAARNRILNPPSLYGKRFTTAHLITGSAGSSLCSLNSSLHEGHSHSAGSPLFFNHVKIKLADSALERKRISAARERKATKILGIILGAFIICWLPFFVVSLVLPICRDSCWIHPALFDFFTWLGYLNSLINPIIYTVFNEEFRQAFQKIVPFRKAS

In general, Ki refers to the dissociation constant of the complex between target and ligand, obtained from inhibition or displacement. For orientation: Kb means the equilibrium dissociation constant of an antagonist, usually derived from a functional assay. High values mean a less potent antagonist, low ones a more potent antagonist. `CCn1ncc(CN2CCN(c3cccnc3N3CCC(O)CC3)CC2)c1C.Cl` [Example 1, 3′-[4-(1-Ethyl-5-methyl-1H-pyrazol-4-ylmethyl)-piperazin-1-yl]-3,4,5,6-tetrahydro-2H-[1,2]bipyridinyl-4-ol hydrochloride]: the inhibition constant Ki in test [1] is 1.84 µM; in test [2], > 7.47 µM; in test [3], > 5.83 µM. Also, the antagonist dissociation constant (Kb) in test [4] (antagonist potency, cAMP formation in 5-HT7 receptor-expressing AV-12 cells) is ~0.00297 µM. The antagonist character result in test [4] (cAMP formation in 5-HT7 receptor-expressing AV-12 cells) is given as “full antagonist”. Moreover, in test [4] (percent inhibition of cAMP formation in 5-HT7 receptor-expressing AV-12 cells), the inhibition result is listed as “about 108%”.
